Test results: patent US7485755B2, “Acid addition salt of carbasugar amine derivative” (Seikagaku Corporation, priority 2003, dated 2009)

Key:
[1] = Solubility test in distilled water; format: physicochemical; details: thermodynamic from solid
[2] = target: T1, bovine sperm-derived β-D-galactosidase (Bos taurus, UniProt Q58D55); assay: Measurement of acidic β-galactosidase inhibitory activity (4-methylumbelliferyl substrate, fluorescence); format: biochemical; details: 0.2 M acetate buffer pH 4.4, 25° C., 30 minutes; read-out: 50% Inhibition concentration (IC50 value)
T1 construct: bovine sperm-derived β-D-galactosidase (manufactured by Signa); purchased Sigma; host or cells: bovine sperm (tissue-derived)
T1 sequence (Q58D55 28-653): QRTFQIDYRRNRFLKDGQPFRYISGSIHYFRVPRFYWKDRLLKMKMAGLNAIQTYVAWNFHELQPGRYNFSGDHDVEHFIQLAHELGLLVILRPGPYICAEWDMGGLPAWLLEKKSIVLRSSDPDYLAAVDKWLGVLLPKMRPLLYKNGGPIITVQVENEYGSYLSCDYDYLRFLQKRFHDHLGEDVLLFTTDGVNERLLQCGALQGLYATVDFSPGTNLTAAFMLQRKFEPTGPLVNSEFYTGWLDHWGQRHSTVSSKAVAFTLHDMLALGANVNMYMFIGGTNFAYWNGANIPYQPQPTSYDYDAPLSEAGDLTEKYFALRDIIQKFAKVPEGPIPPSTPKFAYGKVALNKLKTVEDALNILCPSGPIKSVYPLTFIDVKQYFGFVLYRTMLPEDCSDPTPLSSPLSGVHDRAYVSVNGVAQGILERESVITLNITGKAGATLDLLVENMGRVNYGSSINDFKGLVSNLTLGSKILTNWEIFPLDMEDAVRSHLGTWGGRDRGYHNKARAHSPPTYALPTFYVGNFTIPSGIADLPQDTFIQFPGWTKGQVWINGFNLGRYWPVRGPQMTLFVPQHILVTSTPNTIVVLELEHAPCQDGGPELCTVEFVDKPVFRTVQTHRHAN
Method: Each of Substances A-2 to 7 of the invention dissolved in water for injection, to which DMSO had been added and dissolved therein, if necessary, was diluted with a 0.2 M acetate buffer (pH 4.4) to give a concentration of 0.05, 0.125, 0.25, 0.5, 1.0, 2.5 or 5.0 μM and added at 25 μl into a 96 well microplate. Then, a 0.2 M acetate buffer (pH 4.4) solution of bovine sperm-derived β-D-galactosidase (manufactured by Signa) was added at 25 μl, and 4-methylumbelliferyl-β-D-galactopyranoside (10 μM) was further added as a fluorescence substrate at 50 μl, followed by incubation at 25° C. for 30 minutes. Then, the reaction was stopped by adding 100 μl of 2 M Na2CO3, and an amount of 4-methylumbelliferone released by the enzyme reaction (fluorescence intensity) was measured (excitation wavelength 355 nm, measuring wavelength 460 nm) by a fluorescence reader (product name; ARVOSX manufactured by WALLAC). An amount of the 4-methylumbelliferone released at the time of not adding the inhibitor was defined as 100%, and quantitative change in the 4-methylumbelliferone formed by addition of each substance to be evaluated was relatively evaluated. In addition, as the 50% inhibition concentration (IC50 value), the concentration of each substance of the invention which reduces 50% of the concentration of 4-methylumbelliferone at the time of un-adding each substance of the invention was calculated from an inhibition curve.

Compound: CCCCCCCCNC1C=C(CO)C(O)C(O)C1O (stereo not shown) [Substance B-2]
- solubility ([1]; 19° C., distilled water added to 5.4 mg of sample): > 108 mg/mL

Compound: CCCCCCCCCCCCCCN[C@@H]1C=C(CO)[C@H](O)[C@H](O)[C@H]1O [Substance A-5]
- IC50 [2]: 2.69 µM

Compound: CCCCCCCCCCN[C@@H]1C=C(CO)[C@H](O)[C@H](O)[C@H]1O [Substance A-3]
- IC50 [2]: 0.301 µM

Compound: CCCCCCCCCCCCN[C@@H]1C=C(CO)[C@H](O)[C@H](O)[C@H]1O [Substance A-4]
- IC50 [2]: 1.43 µM

Compound: CCCCCCCCN[C@@H]1C=C(CO)[C@H](O)[C@H](O)[C@H]1O [Substance A-2]
- solubility ([1]; distilled water, water, 24° C.): ≥ 300 mg/mL
- IC50 [2]: 0.476 µM

Compound: CCCCCCCCCCCCCCCCCCN[C@@H]1C=C(CO)[C@H](O)[C@H](O)[C@H]1O [Substance A-6]
- IC50 [2]: 1.79 µM
